# Measurements reported in patent publication US7897607B2, “Cyclic compounds” (Takeda Pharmaceutical Company Limited, priority 2005, dated 2011).
# Target: T1, human CRF receptor (Homo sapiens, UniProt P34998)
# T1 construct: expressed in transfected cells; host or cells: CHO cells (membrane fraction)
# T1 sequence (P34998 24-415): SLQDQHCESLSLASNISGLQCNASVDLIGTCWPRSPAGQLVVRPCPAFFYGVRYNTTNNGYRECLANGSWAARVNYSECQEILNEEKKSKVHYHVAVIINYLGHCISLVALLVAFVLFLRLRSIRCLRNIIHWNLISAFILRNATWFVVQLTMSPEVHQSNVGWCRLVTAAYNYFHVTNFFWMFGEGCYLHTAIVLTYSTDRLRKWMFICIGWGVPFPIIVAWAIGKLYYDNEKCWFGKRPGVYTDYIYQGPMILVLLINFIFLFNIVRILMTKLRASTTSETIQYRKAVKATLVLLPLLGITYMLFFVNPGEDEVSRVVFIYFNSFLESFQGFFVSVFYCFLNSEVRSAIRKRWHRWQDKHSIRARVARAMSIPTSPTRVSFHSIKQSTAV
# Experiment: Measurement of corticotropin-releasing factor (CRF) binding inhibitory rate; receptor binding experiment with 125I-CRF
# Details: human CRF receptor expressing CHO cellular membrane fraction, 50 pM 125I-CRF, room temperature 1 hour
# Experimental: Measurement of Corticotropin-Releasing Factor (CRF) Binding Inhibitory Rate
# A receptor binding experiment was carried out using a human CRF receptor expressing CHO cellular membrane fraction and sheep CRF, [^125I]-tyr^0(^125I-CRF). 100 nM of a test compound was incubated with 1 μg of human CRF receptor expressing CHO cellular membrane fraction and 50 pM of ^125I-CRF in a binding assay buffer (50 mM Tris-HCl, 5 mM EDTA, 10 mM MgCl2, 0.05% CHAPS, 0.1% BSA, 0.5 mM PMSF, […] pepstatin, 20 μg/ml leupeptin, pH 7.5). In addition, for measuring nonspecific binding (NSB), 0.1 μM unlabelled human Urocortin was incubated with 1 μg of human CRF receptor expressing CHO cellular membrane fraction and 50 pM of ^125I-CRF in a binding assay buffer. After a binding reaction was carried out at room temperature for 1 hour, the membrane was entrapped on a glass filter (UniFilter plate GF-C/Perkin Elmer) by suction filtration using a cell harvester (Perkin Elmer), and washed with ice-cooled 50 mM Tris-HCl (pH 7.5). After drying the glass filter, a liquid scintillation cocktail (Microscinti 0, Perkin Elmer) was added, and the radioactivity of ^125I-CRF remaining on a glass filter was measured using Topcount (Perkin Elmer).
# (TB-SB)/(TB-NSB)×100 (SB: radioactivity when a compound is added, TB: maximum binding radioactivity, NSB: nonspecific binding radioactivity) was calculated to obtain a binding inhibitory rate under the presence of 1,000 nM or 100 nM of each test substances.
row,SMILES,inhibition
1,"CCCN(CCC)c1nc2c(c(-c3c(C)cc(C)cc3C)cn2C)c(=O)n1C [Example 41, 2-(Dipropylamino)-5-mesityl-3,7-dimethyl-3,7-dihydro-4H-pyrrolo[2,3-d]pyrimidin-4-one]",> 80%
2,"CCCN(CCC)c1cc(C)c(=O)n2c(-c3c(C)cc(C)cc3C)cccc12 [Example 28, 1-(Dipropylamino)-6-mesityl-3-methyl-4H-quinolizin-4-one]",> 80%
3,"CCCN(CCC)c1nc2c(c(-c3ccc(C)cc3C)nn2C)c(=O)n1C [9 (A), 3-(2,4-Dimethylphenyl)-6-dipropylamino-1,5-dimethyl-1,5-dihydro-4H-pyrazolo[3,4-d]pyrimidin-4-one]",> 80%
4,"CCC(CC)n1c2cccc(-c3c(C)cc(C)cc3C)c2c(=O)n1C [Example 150, 1-(1-ethylpropyl)-4-mesityl-2-methyl-1,2-dihydro-3H-indazol-3-one]",> 80%
5,"CCCC(CCC)n1cc(C)c(=O)c2c(-c3ccc(C)cc3C)cccc21 [Example 24, 5-(2,4-Dimethylphenyl)-3-methyl-1-(1-propylbutyl)quinolin-4(1H)-one]",> 80%
6,"CCC(CC)Oc1nn(C)c(=O)c2c1ccn2-c1ccc(C)cc1C [Example 96, 1-(2,4-Dimethylphenyl)-4-(1-ethylpropoxy)-6-methyl-1,6-dihydro-7H-pyrrolo[2,3-d]pyridazin-7-one]",> 80%
